This is an account of results in patent US10906890B2, “Triazole phenyl compounds as agonists of the APJ receptor” (AMGEN INC., priority 2016, dated 2021).

The target of the assay is human APJ-AT1R (angiotensin Type 1) double stable CHO cell line (Homo sapiens (Human), UniProt P35414). Description: IP1 accumulation (TR-FRET) with AngII in APJ-AT1R double stable CHO cells. It counts as cell-based. The note with it: fixed concentration of agonist with different concentrations of AngII.
Chain of human APJ-AT1R (angiotensin Type 1) double stable CHO cell line (P35414 whole entry): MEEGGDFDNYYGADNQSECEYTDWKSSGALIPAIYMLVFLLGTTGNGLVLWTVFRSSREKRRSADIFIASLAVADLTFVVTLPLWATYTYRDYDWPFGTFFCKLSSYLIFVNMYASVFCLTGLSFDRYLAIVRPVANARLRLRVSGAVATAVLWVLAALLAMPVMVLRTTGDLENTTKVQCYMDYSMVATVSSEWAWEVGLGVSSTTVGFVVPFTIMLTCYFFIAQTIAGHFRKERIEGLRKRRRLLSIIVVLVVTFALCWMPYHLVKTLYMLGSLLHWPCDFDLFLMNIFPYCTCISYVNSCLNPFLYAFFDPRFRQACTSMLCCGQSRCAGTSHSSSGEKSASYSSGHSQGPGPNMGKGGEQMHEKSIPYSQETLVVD

Procedure: Briefly, the CHO-K1 APJ/AT1R cells were seeded in culture medium of DMEM-F12 and 10% FBS at a density of 15 k/well in a 96 well plate overnight. The next day, the culture medium was replaced with medium containing no serum for 4 hours. The compound AngII at a range of concentrations (1 pM-10 μM) with or without different concentrations of APJ agonists were diluted in stimulation buffer and added to the cell plate. The plate was sealed and incubated for 1 hour. This was followed by addition of IP-d2 conjugate followed by europium cryptate antibody conjugate into the wells. The plate was sealed, followed with incubation for 2 hours at RT. Time-resolved fluorescence resonance energy (TR-FRET) at 620 nm and 665 nm was measured after 2 hours with an Envision reader. The signal ratios and delta F were calculated and the amount of IP1 produced was inversely proportional to the TR-FRET ratio, 665/620 nm.

For the compound `CCCCc1nc(Cl)c(CO)n1Cc1ccc(-c2ccccc2-c2nn[nH]n2)cc1` [losartan], the “positive cooperativity on AngII IP1 response” value is recorded as “relieved this cooperativity”.
